Consider 2 compounds from US6444688B1, “Compounds and compositions with nitrogen-containing non-basic side chains” (Eli Lilly and Company, priority 1995, dated 2002).

For data set [1], the system named is ovariectomized (OVX) rats. The data set is described as follows: Thirty-five day dosing regimen: bone density assay (tibia, single photon absorptiometry). It counts as in vivo, Sprague Dawley rats. The note with it: oral in 20% hydroxypropyl β-cyclodextrin, daily for 35 days. As to the method: Following the General Preparation procedure described above, the rats were treated daily for 35 days (6 rats per treatment group) and sacrificed by decapitation on the 36th day. The 35 day time period was sufficient to allow maximal effect on bone density, measured as described herein. At the time of sacrifice, the uteri were removed, dissected free of extraneous tissue, and the fluid contents were expelled before determination of wet weight in order to confirm estrogen deficiency associated with complete ovariectomy. […] The uteri were then placed in 10% neutral buffered formalin to allow for subsequent histological analysis. The right tibias were excised and scanned at the distal metaphysis 1 mm from the patellar groove with single photon absorptiometry. Results of the densitometer measurements represent a calculation of bone density as a function of the bone mineral content and bone width. In accordance with the procedures outlined above, compounds of the present invention and EE2 in 20% hydroxypropyl β-cyclodextrin were orally administered to test animals.

Data set [2] deals with ovariectomized (OVX) rats. Kind of data set: Four day dosing regimen, post-menopausal rat model: wet uterine weight. The class given is in vivo, Sprague Dawley rats. Particulars: for Uterine Weight (% inc. OVX): OVX rats, oral, daily for 4 days. As to the method: (§1) Animals were dosed daily for 4 days. […] A blood sample was collected by cardiac puncture.
Data set [3] has as its system ovariectomized (OVX) rats. The data set is described as follows: Serum cholesterol analysis, four day dosing. It counts as in vivo, Sprague Dawley rats. As for the experimental part:
as §1
Blood samples were allowed to clot at room temperature for 2 hours, and serum was obtained following centrifugation for 10 minutes at 3000 rpm. Serum cholesterol was determined using a Boehringer Mannheim Diagnostics high performance cholesterol assay. Briefly the cholesterol was oxidized to cholest-4-en-3-one and hydrogen peroxide. The hydrogen peroxide was then reacted with phenol and 4-aminophenazone in the presence of peroxidase to produce a p-quinone imine dye, which was read spectrophotemetrically at 500 nm. Cholesterol concentration was then calculated against a standard curve. The entire assay was automated using a Biomek Automated Workstation.

For data set [4], the system named is uterine eosinophil peroxidase activity. The data set is described as follows: Uterine eosinophil peroxidase (EPO) assay, four day dosing. Particulars: for Uterine EPO (Vmax): OVX rats, oral, daily for 4 days. The class given is in vivo, Sprague Dawley rats. As for the experimental part:
as §1

Data set [5] deals with MCF-7 breast adenocarcinoma cells. The data set is described as follows: MCF-7 proliferation assay (tritiated thymidine). The class given is cell-based. The note with it: Homo sapiens, MCF7; MCF-7 cells, 48 hours with drug, tritiated thymidine pulse 4 hours; read-out: ED50 (the source's name). As to the method:
MCF-7 breast adenocarcinoma cells (ATCC HTB 22) were maintained in MEM (minimal essential medium, phenol red-free, Sigma, St. Louis, Mo.) supplemented with 10% fetal bovine serum (FBS) (V/V), L-glutamine (2 mM), sodium pyruvate (1 mM), HEPES {(N-[2-hydroxyethyl]piperazine-N′-[2-ethanesulfonic acid]10 mM}, non-essential amino acids and bovine insulin (1 μg/ml) (maintenance medium). Ten days prior to assay, MCF-7 cells were switched to maintenance medium supplemented with 10% dextrancoated charcoal stripped fetal bovine serum (DCC-FBS) assay medium) in place of 10% FBS to deplete internal stores of steroids. MCF-7 cells were removed from maintenance flasks using cell dissociation medium (Ca++/Mg++ free HBSS (phenol red-free) supplemented with 10 mM HEPES and 2 mM EDTA). Cells were washed twice with assay medium and adjusted to 80,000 cells/ml. Approximately […] (8,000 cells) were added to flat-bottom microculture wells (Costar 3596) and incubated at 37° C. in a 5% CO2 humidified incubator for 48 hours to allow for cell adherence and equilibration after transfer. Serial dilutions of drugs or DMSO as a diluent control were prepared in assay medium and […] to triplicate microcultures followed by […] assay medium for a final volume of […]. […] Samples were counted by liquid scintillation. […]

Marks after values point to notes of the source that are not given here.

With `C#C[C@]1(O)CC[C@H]2[C@@H]3CCc4cc(O)ccc4[C@H]3CC[C@@]21C` [ethynyl estradiol, 17α-Ethynyl estradiol, reference compound], the “tibia density / bone loss after ovariectomy (in words)” value in data set [1] was “prevented this loss”. Further, the “effect on uterine weight compared to ovariectomized animals (in words)” value in data set [2] (EE2 orally at 0.1 mg/Kg/day) is “substantially greater”. Also, the “Uterine Weight (% inc. OVX)” value in data set [2] (dose 0.1 mg/kg) is recorded as 235.2* % inc. OVX. For the same compound, the “effect on serum cholesterol compared to ovariectomized control animals (in words)” value in data set [3] (EE2 orally at 0.1 mg/Kg/day) is recorded as “decrease in serum cholesterol”. For the same compound, the “Uterine EPO (Vmax)” value in data set [4] (dose 0.1 mg/kg) is on record as 120.0* Vmax. In data set [4] (ovariectomized rats), the “eosinophil infiltration into the uterus, by eosinophil peroxidase activity (in words)” value is listed as “substantial, expected increase”.
For the compound `COc1ccc(-c2sc3cc(OC)ccc3c2C(=O)c2ccc(OCC(=O)N3CCCCC3)cc2)cc1` [Compound 7], the EC50 in data set [5] was more than 1000 nM. Also, the figures for the “Uterine Weight (% inc. OVX)” value in data set [2] (dose 0.1 mg/kg), in data set [2] (dose 1 mg/kg) and in data set [2] (dose 10 mg/kg) were −0.5 % inc. OVX, −16.2 % inc. OVX and 8.4 % inc. OVX, respectively. Moreover, in data set [3] (Rattus norvegicus, po, 96 h, OVX rats, oral, daily for 4 days, dose 0.1 mg/kg, read-out: Serum Cholesterol (% dec. OVX)), the inhibition in vivo at 0.1 mg/kg amounted to 3.4%. The inhibition in vivo at 1 mg/kg in data set [3] (Rattus norvegicus, po, 96 h, OVX rats, oral, daily for 4 days, dose 1 mg/kg, read-out: Serum Cholesterol (% dec. OVX)) was 14.6%. Moreover, in data set [3] (Rattus norvegicus, po, 96 h, OVX rats, oral, daily for 4 days, dose 10 mg/kg, read-out: Serum Cholesterol (% dec. OVX)), the inhibition in vivo at 10 mg/kg was -41.9%. The “Uterine EPO (Vmax)” value in data set [4] (dose 0.1 mg/kg) came to 5.2 Vmax; in data set [4] (dose 1 mg/kg), 3.7 Vmax; in data set [4] (dose 10 mg/kg), 4.7 Vmax.
